The conditions of series [1]: ACS patients, phase III; cited from earlier work.
Series [2] concerns the target T1, PAR4 (Homo sapiens (Human), UniProt Q96RI0). Put plainly: FLIPR assay in PAR4-expressing HEK293 cells (PAR4 antagonist activity, calcium mobilization). The class given is cell-based. The settings on record: FLIPR assay as described in Example A. The gist of the method: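 HEK293 cells stably expressing human PAR4 (also endogenous PAR1) in HBSS/10 mM HEPES, 0.67% DMSO final. Compound added and read for agonist activity, then 30 min room temperature before PAR4 agonist peptide; intracellular calcium mobilization monitored by FDSS/FLIPR.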

Series [3] has as its system platelet aggregation in human PRP. As to the kind of experiment: Tissue factor-induced platelet aggregation assay. The class given is cell-based. The settings on record: tissue factor and CaCl2. From the text: Example E is a tissue factor-induced platelet aggregation assay. The conditions in this assay mimic the physiological events during thrombus formation. In this assay, platelet aggregation in human PRP was initiated by the addition of tissue factor and CaCl2. Tissue factor, the initiator of the extrinsic coagulation cascade, is highly elevated in human atherosclerotic plaque. Exposure of blood to tissue factor at the atherosclerotic site triggers a robust generation of thrombin and induces the formation of obstructive thrombi.
(§1) The platelet rich plasma was isolated by centrifugation at 170 g for 14 minutes.
The ability of PAR1 or PAR4 antagonist to inhibit platelet aggregation induced by endogenous thrombin was tested in a tissue factor driven aggregation assay. The compounds were pre-incubated with PRP for 2 min (FIGS. 3 and 4). Aggregation is initiated by addition of CaCl2 and recombinant human tissue factor, which results in the generation of thrombin through activation of the coagulation pathway in the plasma. Anticoagulant agents such as corn trypsin inhibitor (Haematologic Technologies, Essex Junction, Vt.) at 50 μg/ml and PEFABLOC® FG (Centerchem, Norwalk, Conn.) are also added to the sample to prevent fibrin clot formation during the time of the study. Platelet aggregation is monitored using standard instrumentation including optical aggregometer or impedance aggregometer.

Series [4] deals with T1, PAR4. As to the kind of experiment: Gamma thrombin induced platelet aggregation assay in PRP (PRP assay). Format: cell-based.
Excerpt: The compounds of the current invention can be tested in vitro for their ability to inhibit platelet aggregation induced by gamma-thrombin as shown in Example C. Gamma-thrombin, a proteolytic product of alpha-thrombin which no longer interacts with PAR1, selectively cleaves and activates PAR4 (Soslau, G. et al., “Unique pathway of thrombin-induced platelet aggregation mediated by glycoprotein Ib”, J. Biol. Chem., 276:21173-21183 (2001)). Platelet aggregation can be monitored in a 96-well microplate aggregation assay format or using standard platelet aggregometer. The aggregation assay can also be employed to test the selectivity of the compound for inhibiting platelet aggregation induced by PAR4 agonist peptides, PAR1 agonist peptide, ADP, or thromboxane analogue U46619.
as §1
The ability of the compounds of the current invention to inhibit platelet aggregation induced by gamma-thrombin was tested in a 96-well microplate aggregation assay format. Briefly, PRP or washed platelet suspension (100 μl) was pre-incubated for 5 minutes at room temperature with varying concentrations of compounds. Aggregation was initiated by ˜10-50 nM gamma thrombin (Haematologic Technologies, Essex Junction, Vt.), which was titrated daily to achieve 80% platelet aggregation. Refludan at 1 U/mL (Berlex, Montville, N.J.) was added to the gamma thrombin sample to prevent PAR1 activation induced by residual alpha-thrombin contamination. The plate was then placed into a 37° C. Molecular Devices (Sunnyvale, Calif.) SPECTRAMAX® Plus Plate Reader. […] Data was collected with SOFTMAX® 4.71 software. The plate also included an untreated control sample which served as ODmax, while buffer containing no platelets was the ODmin. Platelet aggregation was determined by subtracting the ODmax from the ODmin for the 100% aggregation value. In experimental samples, the observed transmission was subtracted from the minimum value and then compared to the 100% aggregation value to determine the percentage aggregation. IC50 values are determined using Excel Fit software.
As indicated above, the PRP assay, an in vitro assay, measures the PAR4 antagonist activity of compounds tested as described in Example C.

A further series has as its system human washed platelets. Put plainly: Alpha-thrombin induced platelet aggregation assay. Format: cell-based. The settings on record: for IC50: Homo sapiens, Platelet, 0.1 h, AUC at 6 min, read-out: IC50 for the inhibition of platelet aggregation. Here is the method: Example D is an alpha-thrombin-induced platelet aggregation assay. Alpha-thrombin activates both PAR1 and PAR4.
Human blood was collected in ACD (85 mM tri-sodium citrate, 78 mM citric acid, 110 mM D-glucose, pH 4.4) at a ratio of 1.4 ml per 10 ml blood. PRP was isolated by centrifugation at 170 g for 14 minutes and platelets were further pelleted by centrifugation at 1300 g for 6 minutes. Platelets were washed once with 10 ml ACD containing 1 mg/ml bovine serum albumin. Platelets were resuspended at ˜2.5×10^8/ml in Tyrode's Buffer (137 mM NaCl, 2 mM KCl, 1.0 mM MgCl2, 1 mM CaCl2, 5 mM glucose, 20 mM HEPES pH 7.4).
The ability of PAR4 antagonist to inhibit platelet aggregation induced by alpha-thrombin was tested using human washed platelets. […] Aggregation was initiated by addition of 2.5 or 5 nM alpha-thrombin (Haematologic Technologies, Essex Junction, Vt.) to 240 μl of washed platelets at stirring speed of 1200 rpm. […] IC50 was calculated using vehicle control as 0% inhibition.

Molecules are shown by their SMILES. Read-outs that look alike come from different tables or passages of the source.

Usually IC50 stands for the concentration that inhibits the measured activity by half.

T1 sequence (Q96RI0 18-385): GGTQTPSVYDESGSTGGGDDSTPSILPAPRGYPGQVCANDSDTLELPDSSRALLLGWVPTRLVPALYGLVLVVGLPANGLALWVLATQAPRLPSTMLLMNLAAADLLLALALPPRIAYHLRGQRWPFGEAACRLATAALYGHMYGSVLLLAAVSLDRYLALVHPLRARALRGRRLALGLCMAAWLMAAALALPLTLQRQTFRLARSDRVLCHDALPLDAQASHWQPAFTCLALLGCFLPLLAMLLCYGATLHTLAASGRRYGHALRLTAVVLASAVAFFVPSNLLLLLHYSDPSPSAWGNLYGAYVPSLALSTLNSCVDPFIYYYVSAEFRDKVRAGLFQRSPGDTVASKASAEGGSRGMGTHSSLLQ

Consider `CCOC(=O)N[C@@H]1CC[C@@H]2[C@@H](C1)C[C@H]1C(=O)O[C@H](C)[C@H]1[C@H]2/C=C/c1ccc(-c2cccc(F)c2)cn1` [vorapaxar], for which, in series [1], the cardiovascular events result is reported as “did not significantly reduce cardiovascular events” and the “risk of major bleeding” value is listed as “significantly increased the risk of major bleeding”.

With `COc1cc(OC)c2cc(-c3cn4nc(OC)sc4n3)oc2c1` [Example 73], the IC50 on PAR4 [2] was 0.00099 µM. In series [3], the “inhibition of tissue factor-induced platelet aggregation (FIGS. 3 and 4)” value was “effective inhibition”.

Consider `COc1cc(OCc2cc(F)cc(OCc3ccccc3)c2)c2cc(-c3cn4nc(OC)sc4n3)oc2c1` [Example 350], for which the IC50 at PAR4 [2] came to 0.00076 µM; on PAR4 [4], 0.0857 µM.

For `COc1cc(OCc2cccc(OCc3ccc(F)cc3)c2)c2cc(-c3cn4nc(OC)sc4n3)oc2c1` [Example 346], the IC50 was determined as 0.00168 µM at PAR4 [2] and 0.147 µM against PAR4 [4].

For `CCOc1nn2cc(-c3nc4ccccc4s3)nc2s1` [Example 27], the IC50 at PAR4 [2] is 1.78 µM; against PAR4 [4], above 30 µM.

In the case of `COc1nn2cc(-c3cc4c(OCc5ccccc5)cc(OCc5ccccc5)cc4o3)nc2s1` [Example 255], the IC50 on PAR4 [2] is 0.113 µM; at PAR4 [4], above 30 µM.

On to `COc1cc(OCc2cccc(OCc3c(F)cccc3Cl)c2)c2cc(-c3cn4nc(OC)sc4n3)oc2c1` [Example 370], for which the IC50 was 0.0053 µM at PAR4 [2] and 0.151 µM on PAR4 [4].

For the compound `COc1nn2cc(-c3nc4c(C)cccc4o3)nc2s1` [Example 129], the IC50 at PAR4 [2] was 0.032 µM; on PAR4 [4], above 30 µM.

For the compound `COc1cc(OCc2ccc(F)cc2)c2cc(-c3cn4nc(OC)sc4n3)oc2c1` [Example 303], the IC50 came to 0.00568 µM on PAR4 [2] and 3.19 µM against PAR4 [4].

With `COc1cc(OCc2cccc(OCc3cccc(Oc4ccccc4)c3)c2)c2cc(-c3cn4nc(OC)sc4n3)oc2c1` [Example 384], the IC50 on PAR4 [2] amounted to 0.00505 µM; against PAR4 [4] it was 0.568 µM.

Take `CSc1nn2cc(-c3cc4c(OCc5ccccc5)cc(OCc5ccccc5)cc4o3)nc2s1` [Example 253]: the IC50 on PAR4 [2] was 0.114 µM; on PAR4 [4], above 30 µM.

In the case of `COc1cc(OCc2cccc(OCc3ccccn3)c2)c2cc(-c3cn4nc(OC)sc4n3)oc2c1` [Example 319], the 50% inhibitory concentration (IC50) worked out at 0.0092 µM at PAR4 [2] and 0.124 µM on PAR4 [4].

With `COc1cc(OCc2cccc(OC(=O)c3ccccc3)c2)c2cc(-c3cn4nc(OC)sc4n3)oc2c1` [Example 355], the figures for the IC50 at PAR4 [2] and against PAR4 [4] were 0.00165 µM and 0.0333 µM, respectively.

Consider `COc1cc(OCc2cccc(OCc3cc(F)cc(C(F)(F)F)c3)c2)c2cc(-c3cn4nc(OC)sc4n3)oc2c1` [Example 356], for which the IC50 on PAR4 [2] amounted to 0.00166 µM; against PAR4 [4], 0.109 µM.

As to `CCc1nn2cc(-c3nc4cc(C(C)(C)C)ccc4o3)nc2s1` [Example 57], the figures for the IC50 on PAR4 [2] and against PAR4 [4] were 0.575 µM and above 30 µM, respectively.

In the case of `COc1nn2cc(-c3cc4c(F)cc(OCc5cccc(OCc6ccccc6)c5)cc4o3)nc2s1` [Example 428], the IC50 was determined as 0.00481 µM on PAR4 [2] and 0.0732 µM against PAR4 [4].

With `COc1cc(OCc2cccc(OCc3ccc(F)c(F)c3F)c2)c2cc(-c3cn4nc(OC)sc4n3)oc2c1` [Example 325], the IC50 at PAR4 [2] came to 0.00164 µM; at PAR4 [4], 0.0862 µM.

Consider `CSc1nn2cc(-c3cc4cccc(C)c4o3)nc2s1` [Example 22], for which the IC50 at PAR4 [2] came to 0.217 µM; against PAR4 [4], 8.76 µM.

For `COc1ccc(Br)c2cc(-c3cn4nc(SC)sc4n3)oc12` [Example 282], the results for the IC50 at PAR4 [2] and against PAR4 [4] were 0.0496 µM and 5.63 µM, respectively.

As to `COc1cc(OCc2cccc(OCc3ccccc3)c2)c2cc(-c3cn4nc(C(C)(F)F)sc4n3)oc2c1` [Example 347], the IC50 on PAR4 [2] turned out to be 0.00274 µM; against PAR4 [4] it was 0.579 µM.

With `COc1cc(OCc2cccc(OCc3ccnc(Cl)c3)c2)c2cc(-c3cn4nc(OC)sc4n3)oc2c1` [Example 320], the values for the IC50 at PAR4 [2] and against PAR4 [4] were 0.00393 µM and 0.0755 µM, respectively.

In the case of `COc1nn2cc(-c3oc4c(OC)c(OC)ccc4c3C)nc2s1` [Example 36], the values for the IC50 on PAR4 [2] and on PAR4 [4] were 1.66 µM and above 30 µM, respectively.

With `COc1cc(OCc2ccccc2)c2cc(-c3cn4nc(OC)sc4n3)oc2c1` [Example 203, 6-(4-(Benzyloxy)-6-methoxybenzofuran-2-yl)-2-methoxyimidazo[2,1-b][1,3,4]thiadiazole], in the series with human washed platelets (5 nM alpha-thrombin), the “inhibition of alpha-thrombin-induced platelet aggregation (FIG. 2)” value was “dose-dependent inhibition”. Moreover, the IC50 with human washed platelets (5 nM alpha-thrombin, n=3) was determined as 6.9 ± 0.3 µM; with human washed platelets ([…] alpha-thrombin, n=4), 1.1 ± 0.9 µM.

On to `CSc1nn2cc(-c3nc4ccc(OC(C)C)cc4o3)nc2s1` [Example 161], for which the IC50 at PAR4 [2] was 0.0799 µM; against PAR4 [4], above 30 µM.

`COc1cc(OCc2cccc(OCc3cccc(C)c3)c2)c2cc(-c3cn4nc(OC)sc4n3)oc2c1` [Example 386]: the IC50 at PAR4 [2] is 0.00177 µM; on PAR4 [4], 0.055 µM.

Regarding `COc1cc(OCc2ccc(F)cc2)c2cc(-c3cn4nc(SC)sc4n3)oc2c1` [Example 301], the values for the IC50 on PAR4 [2] and against PAR4 [4] were 0.023 µM and 2.96 µM, respectively.

(Values after US9862730B2, “Imidazothiadiazole derivatives as protease activated receptor 4 (PAR4) inhibitors for treating platelet aggregation” (BRISTOL-MYERS SQUIBB COMPANY, priority 2012, dated 2018).)
